Test results as given in a melting point compilation (Tetko et al.; mined from patent text by program, amines drawn as free bases though some values may be those of a salt).

Structure (SMILES) | melting point [°C]
Cc1ccc(-c2ccc(C(=O)Nc3cc4ncc(CN5CCCC5)cc4cc3F)cc2)cc1 | 202 to 204
Cn1cc(CO)c(=O)c2ccc(C(C)(C)C)cc21 | 146 to 149
CC1=C(C#CC2=C(/C=C/C(C)=C/C(=O)O)CCC2)C(C)(C)CCC1 | 173 to 174
C#CCOc1ccc2ccc(NC(=O)c3ccc(OC)cc3)nc2n1 | 140
O=C(O)CC12CCC(=O)N1C(=O)CC2 | 177 to 180
CCCCc1nn(-c2ccccc2Cl)c(=O)n1Cc1ccc(-c2ccccc2S(N)(=O)=O)cc1 | 140 to 142
CC(=O)n1c(CCc2ccccc2)cc2c(I)ccnc21 | 109 to 110
CCCCCCCCCCNC(=O)C=C(c1ccccc1)c1ccc(N)cc1 | 90 to 100
CC(C)(C)NC(=O)[C@@H]1CSCN1C(=O)OCc1ccccc1 | 96 to 98
O=C(Nc1ccc2c(c1)CCN2)C(=O)N1CCC(Cc2ccccc2)CC1 | 75 to 76
O=c1c(Cc2cccnc2)cn2c3ccccc3c(=O)c3cccc1c32 | 266 to 268
NNc1ccc(CS(N)(=O)=O)cc1 | 156 to 158
CC(=O)N1C(C)(C)CN(CCN2CC(C)(C)N(C(C)=O)C(C)(C)C2=O)C(=O)C1(C)C | 180 to 183
CN(C)c1nc(C(F)(F)F)cc(=O)o1 | 79
O=C1c2cnc3[nH]ncc3c2C(=O)N1CCc1ccccc1 | 237 to 239
N=C(NC=Cc1ccc(N)cc1)c1ccccc1 | 166 to 168
COC(=O)[C@H]1CC[C@@H](c2ccc(F)cc2)N1S(=O)(=O)c1ccc(C)cc1 (racemic) | 91
Nc1sc2c(c1C(=O)c1ccc(Br)c3ccccc13)CCCC2 | 176 to 178
CCOc1nnc(-c2ccc(C(F)(F)F)cc2)[nH]1 | 151 to 152
CN1C(=O)c2cccc(S(=O)(=O)NC(C)(C)C)c2C1=O | 160 to 163
O=C1N(Cc2ccc(Cl)c(Cl)c2)C(=NCC(F)(F)F)SCN1c1ccccc1 | 99.1 to 99.6
CC(C)(C)C(=O)SCC1CCCCCCCSC[C@@H](C(=O)OCc2ccccc2)NC1=O (stereo partly specified) | 135 to 137
O=C1CC(c2cccc(-n3ccnc3)c2)=Nc2cc(O)c(C#Cc3ccc(F)cc3)cc2N1 | 247
CCn1c(C)nc(N2CCc3nc(N)sc3CC2)c([N+](=O)[O-])c1=O | > 200
CCOC(=O)CC[C@H](NC(=O)CCc1cc(Cl)ccc1C(=O)CCCNC(C)=O)C(=O)OCC | 109 to 111
O=C(O)CCc1ccc(C(c2cc(F)ccc2F)S(=O)(=O)c2ccc(Cl)cc2)nc1 (stereo unspecified) | 158 to 160

Structure (SMILES) | melting point [°C]
CN1CCN(c2ccc(C(=O)NC3CCCNC(=O)C3)cc2)CC1 (stereo unspecified) | 232 to 234
CC(C)(C)CC(NC(=O)c1ccc(Cl)cc1)NC(=N[N+](=O)[O-])Nc1cccnc1 (stereo unspecified) | 184 to 185
CN(c1cccc(C(=O)O)c1)c1ccc(-c2ccc(C(=N)N)cc2)nn1 | > 260
CS(=O)(=O)c1cc(C(=O)O)cc(N=Cc2ccco2)c1Cl | 221
Cc1csc(C)c1S(=O)(=O)Cl | 79
N#CC1CN(C(=O)[C@H](NC(=O)c2c[nH]c3ncc(-c4ccccc4)nc23)C2CC2)C1 | 200 to 202
FC(F)(F)c1cc(C(F)(F)F)c2[nH]c(N3CCN(c4ncccc4Br)CC3)nc2c1 | 166
COc1ncccc1OCC1(c2onc(-c3ccc(O)cc3)c2-c2ccccc2)CC1 | 189 to 190
CC(=O)c1ccc(CC(C)NCC(O)c2ccccc2)cc1 (stereo unspecified) | 120 to 135
O=C(NCCc1ccc(Cl)cc1)C1Cc2ccccc2N1S(=O)(=O)c1ccc(-c2ccc(F)cc2)cc1 (stereo unspecified) | 126
Nc1sc2c(c1C(=O)c1ccc(Cl)cc1)CCS2 | 146 to 150
Cc1c(F)cccc1Cc1c(-c2ccccc2)c2cc(O)cnn2c1C(=O)N1CCN(C(=O)OC(C)(C)C)CC1 | 165
O=C(CS(=O)(=O)c1ccccc1)c1ccccn1 | 101 to 103
COC(=O)c1cc(C(C)=O)c(C(F)(F)F)cc1NC(C)=O | 66 to 69
COc1ccc2c(c1)CCc1ccc(-c3ccccc3)cc1C21N=C(N)N(C)C1=O (stereo unspecified) | 167 to 171
CSc1nc2[nH]c3c(c(=O)n2n1)SCCC3 | 314 to 318
COc1ccc(-c2ccc3c(N4CCOC[C@@H]4C)nc(N4CCOC[C@@H]4C)nc3n2)cc1CO | 202 to 205
CC(=O)NC(C)Cc1ccccc1 (stereo unspecified) | 91 to 93
Cc1cc(=O)n2cccc(OCc3ccccc3C(F)(F)F)c2n1 | 130 to 132
Cc1ccc(C)c(NC(=O)C(C)c2ccc(N)c([N+](=O)[O-])c2)c1 (stereo unspecified) | 187 to 188
COC(=O)c1cc2c(Sc3ccc(C)cc3)cncc2s1 | 116 to 119
CC1(C)CCc2cccc3c(-c4ccc(F)cc4)c(C=CC4CC(O)CC(=O)O4)n1c23 (stereo unspecified) | 166
CCCCCCCCCCCCCCCCCCS(=O)(=O)Nc1ccc(O)cc1 | 142
CCCn1c(=O)c(-c2ccccc2)c2n(c1=O)CC=CS2 | 142 to 144
COCc1c(C(=O)OC(C)C)ncc2[nH]c3cccc(Oc4ccc([N+](=O)[O-])cc4)c3c12 | 217 to 219
CC(C)(C)OC(=O)N1CCN(C(=O)CCc2cccnc2)CC1 | 125 to 126

Structure (SMILES) | melting point [°C]
C=CCC1COC(CC)(CC(=O)O)c2[nH]c3c(C)c(F)ccc3c21 (stereo unspecified) | 138 to 140
C[C@]1(CN2CCN(C(=O)CSc3ccc(Cl)cc3)CC2)Cn2cc([N+](=O)[O-])nc2O1 | 142 to 145
COc1cc(COC(C)=O)c(COC(C)=O)cc1OCCCl | 79 to 80
CCN(CC)c1ccc(C2(c3c(C)n(CC)c4ccccc34)OC(=O)c3ccccc32)c(OCc2ccccc2)c1 (stereo unspecified) | 138
O=C(CNc1ccccc1)OC1CCCCC1 | 50
CC(C)(C)OC(=O)N1CCC(c2ccc(COc3ccc(-n4cncn4)cc3)nc2)CC1 | 147 to 150
Cc1c(N)cccc1C1=NC(C)(C)CO1 | 45
COC[C@@H]1C(=O)Nc2ccc(C(F)(F)F)cc2C[C@@H]1c1ccc(OC)cc1 (relative stereo) | 220 to 228
COC(=O)C(CSC(c1ccccc1)c1ccccc1)NC(=O)C(=O)NCCSC(c1ccccc1)c1ccccc1 (stereo unspecified) | 131
Cc1ccc(C2=C(c3ccc(S(C)(=O)=O)cc3)C(=O)N(C)C2)cc1 | 183 to 185
Cc1ccc2c([nH]c3c(C(=O)O)cccc32)c1Cl | 266
Cc1c(C(N)=O)oc2nn(Cc3ccccc3)c(C)c12 | 228 to 230
O=C1CCC(=O)N1CCc1ccc(OC(F)(F)F)cc1 | 91 to 93
COc1c(C2CCN(CCCCNC(=O)c3ccc(-c4ccc(C#N)cc4)cn3)CC2)ccc2c1CCCC2 | 140
CN(C)C(=O)NCc1cccc(-c2nc(=O)c3ccccc3s2)n1 | 175 to 176
CC(C)CCc1c(-c2ccc(S(N)(=O)=O)cc2)cnn(-c2cccc(Cl)c2)c1=O | 167 to 170
CC(C)c1ccc2c(c1)C(Cl)Cc1ccc(F)cc1S2 (stereo unspecified) | 82 to 83
COc1ccc(C(O)CNCc2cccc(OC)c2C)cc1OC (stereo unspecified) | 135 to 136
N#Cc1ccc(C(=O)Nc2ccc(OCCN3CCOCC3)c3ccccc23)cc1 | 213 to 214
CC(=O)NNc1nc(C(F)(F)F)nc(-c2ccccc2)c1-c1ccccc1 | 113 to 116
ON=Cc1ccccc1OCc1ccc(Cl)cc1 | 122 to 124
Cc1cccc(NC(=O)NCC(=O)N(c2ccccc2)c2cccc(Cl)c2)c1 | 184
Cc1cc(C#N)cc(-c2ccc3c(c2)C(C)(C)OC(=O)N3)c1 | 256 to 258
O=C(NCc1ccc(Cl)cc1)c1ccc2sccc2c1O | 168 to 169
O=C(Nc1ccccc1)c1ccc2c(c1)S(=O)(=O)N=CN2C1CC1 | 293 to 296
O=c1c2c(nc3ccc(Cl)cn13)CCC2 | 146 to 147

Structure (SMILES) | melting point [°C]
CON(C)C(=O)c1cc(Br)cnc1N1CCCC1 | 94 to 96
CC(C)(C)OC(=O)NCC1(O)CCNCC1 | 136 to 138
CCOC(=O)c1ccc(N=C(Nc2ccc(C(=O)OCC)cc2)c2ccc(C#N)cc2)cc1 | 205 to 213
O=C(c1c(Cl)cccc1Cl)n1ccnc1-c1ccccc1 | 110 to 114
CCc1cc(NC(=O)c2cccs2)cc(CC)c1O | 190 to 192
CN1Cc2c(C#N)ncn2-c2ccc(F)cc2C1=O | 236 to 237
OCC12CCCN(CC1)C2 (stereo unspecified) | 44 to 47
C=CCc1cn2c(=O)c(C(=O)OCC)cnc2c2cc(OC)ccc12 | 182 to 186
CCCCCCCCCCCCNCC(O)CO (stereo unspecified) | 75 to 76
CC(C)(C)c1cc(SC2(Sc3cc(C(C)(C)C)c(O)c(C(C)(C)C)c3)CCCC2)cc(C(C)(C)C)c1O | 138 to 143
COC(=O)c1cccnc1C(=O)c1ccc(F)cc1 | 95 to 96.5
N#Cc1ccccc1C(=O)c1ccccc1S | 94
Cc1cc(Cl)cc(C(=O)NCC2CC2)c1N | 127 to 128
CC(C)(C)C(=O)NS(=O)(=O)c1cccc(N)c1 | 147 to 150
COC(=O)C1C(CC(C)C)C(C(=O)OC)C(O)(C(F)(F)F)OC1(O)C(F)(F)F (stereo unspecified) | 67 to 73
CCS(=O)(=O)NCCCCn1c(C)nc2c(N)nc3ccccc3c21 | 211 to 212
CN(C)c1ccccc1CC(=N)N1C[C@@H]2C(=O)CCC(c3ccccc3)(c3ccccc3)[C@@H]2C1 | 188
O=C(O)CNC(=Nc1ccccc1)NC1CCCCC1 | 160 to 165
NC(=NCC(F)(F)F)Nc1ccnc(CCCO)n1 | 136 to 138
Cn1c(C(F)(F)F)cc(=O)n(-c2ccc3snc(-c4nc5ccccc5[nH]c4=O)c3c2)c1=O | > 250
CN1CCC2(CC1)Oc1ccccc1Cn1cccc12 | 100 to 101
CC(=O)Nc1ccc(C(C)=O)c(F)c1F | 149 to 152
COc1ccc2c(c1)c(CN(O)C(=O)N(C)C)c(C)n2C(=O)c1ccc(Cl)cc1 | 173 to 174
